Where a name gives a salt, the structure may show the parent alone.
System: Gad1 H3K4me2 level in rat primary culture neurons
Test: Gad1 H3K4 methylation induction activity in rat primary culture neurons (ChIP, quantitative PCR)
Assay type: cell-based
Conditions: Neuron, 72 h, 3 days culture, control without compound = 100%

## Cc1nnc(NC(=O)c2cc([C@@H]3C[C@H]3NC3CCC3)cs2)s1 [Example 118, 4-((1S,2R)-2-(cyclobutylamino)cyclopropyl)-N-(5-methyl-1,3,4-thiadiazol-2-yl)thiophene-2-carboxamide sulfate]
  activity at 10 µM: 233%
